Experimental data reported in patent US20130190248A1, “S[…] ANALOGS” (AGENSYS, INC., priority 2011, published 2013).
Where a SMILES comes first, the peptide text is derived from it. [ ]: non-standard residue; d: D form. The star is where a group is joined. Dolaproine = CO[C@@H]([C@@H]1CCCN1)[C@@H](C)C(=O)O; Dil = CC[C@H](C)[C@H](NC)[C@@H](CC(=O)O)OC; NH(2-(2-pyridyl)ethyl) = c1ccc(CCN*)nc1; NMeV = CN[C@H](C(=O)O)C(C)C

System: SW780 human bladder cancer cells
Experiment: In vivo efficacy in subcutaneously established human bladder cancer cell line SW780 implanted in ICR SCID mice
Settings: QW for 3 weeks, SW780 xenograft, male ICR SCID mice
Experimental: Determination of In Vivo Efficacy of Test Compounds: Efficacy Evaluation in Subcutaneously Established Human Bladder Cancer Cell Line SW780 Implanted in ICR SCID Mice
For animal in vivo studies, the test compounds were diluted with 20 mM Histidine, 5% Sucrose, pH 6 with 15% DMSO. Male ICR SCID mice (Taconic Farm, Hudson, N.Y.) were housed in standard rodent micro isolator cages. Environment controls for the animal rooms were set to maintain a temperature between 68-75° F., a relative humidity between 30% to 70%, and an approximate 12 h light/12 h dark cycle. Food and water was provided ad libitum. After 72 h of acclimatization, the mice were implanted with SW780 human bladder cancer cells (2×10^6 cells/mouse), suspended in 50% complete cultrex (Trevigen, Inc.) mixed with 1×PBS (Gibco), and the tumor growth rate was monitored. When the average tumor volume reached ˜200 mm^3, tumors were size-matched and mice were randomized to treatment groups (n=8 or 10). The tumor-bearing mice were treated i.v. with Vehicle or test compound at 2 or 4 mg/kg (mpk) on a QW dosing schedule for 3 weeks. Tumor volume was assessed twice weekly using caliper measurement.

**Q.** With `CC[C@H](C)[C@@H]([C@@H](CC(=O)N1CCC[C@H]1[C@H](OC)[C@@H](C)C(=O)NCCc1ccccn1)OC)N(C)C(=O)[C@@H](NC(=O)[C@@H](NC)C(C)C)C(C)C` [Example 1, (S)—N-((3R,4S,5S)-3-Methoxy-1-((S)-2-((1R,2R)-1-methoxy-2-methyl-3-oxo-3-((2-(pyridin-2-yl)ethyl)amino)propyl)pyrrolidin-1-yl)-5-methyl-1-oxoheptan-4-yl)-N,3-dimethyl-2-((S)-3-methyl-2-(methylamino)butanamido)butanamide] (H-[NMeV]V[Dil][Dolaproine]-{NH(2-(2-pyridyl)ethyl)}) as the compound, how does the “effect on tumor growth (mean tumor volume versus days of treatment)” value (2 mg/kg i.v.) read?
**A.** tumor stasis

**Q.** What about the “effect on tumor growth (mean tumor volume versus days of treatment)” value (4 mg/kg i.v.) of the same compound?
**A.** tumor stasis

**Q.** `CC[C@H](C)[C@@H]([C@@H](CC(=O)N1CCC[C@H]1[C@H](OC)[C@@H](C)C(=O)NCCc1ccc(N)cc1)OC)N(C)C(=O)[C@@H](NC(=O)[C@H](C(C)C)N(C)C)C(C)C` [Example 22, (S)—N-((3R,4S,5S)-1-((S)-2-((1R,2R)-3-((4-aminophenethyl)amino)-1-methoxy-2-methyl-3-oxopropyl)pyrrolidin-1-yl)-3-methoxy-5-methyl-1-oxoheptan-4-yl)-2-((S)-2-(dimethylamino)-3-methylbutanamido)-N,3-dimethylbutanamide] was tested. Which “effect on tumor growth (mean tumor volume versus days of treatment)” value (2 mg/kg i.v.) did it give?
**A.** tumor stasis
